Data: US7323490B2, “Pyrrole compounds and uses thereof” (Ambit Biosciences Corporation, priority 2003, dated 2008)

What was measured:
CLB2 = biological target: T1, CLB2 (Homo sapiens, UniProt P22676); test: T7 phage display competition binding assay (immobilized atorvastatin), CLB2; details: soluble competitor vs atorvastatin-coated affinity matrix; T7 phage displaying CLB2
T1 construct: made in house; host or cells: T7 phage amplified in E. coli
T1 sequence (P22676 1-271): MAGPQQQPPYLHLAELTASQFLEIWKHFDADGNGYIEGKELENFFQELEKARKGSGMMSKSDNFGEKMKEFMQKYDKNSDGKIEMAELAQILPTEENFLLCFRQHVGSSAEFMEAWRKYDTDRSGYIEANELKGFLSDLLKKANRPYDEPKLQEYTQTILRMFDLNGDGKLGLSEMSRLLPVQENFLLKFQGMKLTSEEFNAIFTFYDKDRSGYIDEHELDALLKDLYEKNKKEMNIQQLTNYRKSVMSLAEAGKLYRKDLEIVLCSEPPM
Source text: (§1) The T7 phage displaying human PDE6D and CLB2 were obtained following the procedure of WO 01/18234, published Mar. 15, 2001, and U.S. patent applications Ser. No. 10/115,442, “Phage Display Affinity Filter and Forward Screen,” filed Apr. 2, 2002 and Ser. No. 10/214,654, “Uncoupling DNA Insert Propagation and Protein Display,” filed Aug. 7, 2002. […] The phage eluate was then amplified by growth in E. coli and the affinity enrichment procedure was repeated.
(§2) The dissociation constants, Kd's, for the interaction between the pyrrole compounds and the novel targets were obtained following the procedure of the co-pending patent applications U.S. Ser. Nos. 10/115,442, “Phage Display Affinity Filter and Forward Screen,” filed Apr. 2, 2002 and 60/480,587, “Protein Family Profiling Tool and Methods,” filed Jun. 20, 2003.

PDE6D [1] = biological target: T2, PDE6D (Homo sapiens, UniProt O43924); test: T7 phage display competition binding assay (immobilized atorvastatin), PDE6D; parameters: made in house; host or cells: T7 phage amplified in E. coli; details: soluble competitor vs atorvastatin-coated affinity matrix; T7 phage displaying human PDE6D
Source text: as §1, §2

HMG-CoA reductase = biological target: T3, HMG-CoA reductase (Homo sapiens, UniProt P04035); test: enzymatic activity-based HMG-CoA reductase assay; type: biochemical; details: concentrations up to 4 μM
T3 sequence (P04035 1-888): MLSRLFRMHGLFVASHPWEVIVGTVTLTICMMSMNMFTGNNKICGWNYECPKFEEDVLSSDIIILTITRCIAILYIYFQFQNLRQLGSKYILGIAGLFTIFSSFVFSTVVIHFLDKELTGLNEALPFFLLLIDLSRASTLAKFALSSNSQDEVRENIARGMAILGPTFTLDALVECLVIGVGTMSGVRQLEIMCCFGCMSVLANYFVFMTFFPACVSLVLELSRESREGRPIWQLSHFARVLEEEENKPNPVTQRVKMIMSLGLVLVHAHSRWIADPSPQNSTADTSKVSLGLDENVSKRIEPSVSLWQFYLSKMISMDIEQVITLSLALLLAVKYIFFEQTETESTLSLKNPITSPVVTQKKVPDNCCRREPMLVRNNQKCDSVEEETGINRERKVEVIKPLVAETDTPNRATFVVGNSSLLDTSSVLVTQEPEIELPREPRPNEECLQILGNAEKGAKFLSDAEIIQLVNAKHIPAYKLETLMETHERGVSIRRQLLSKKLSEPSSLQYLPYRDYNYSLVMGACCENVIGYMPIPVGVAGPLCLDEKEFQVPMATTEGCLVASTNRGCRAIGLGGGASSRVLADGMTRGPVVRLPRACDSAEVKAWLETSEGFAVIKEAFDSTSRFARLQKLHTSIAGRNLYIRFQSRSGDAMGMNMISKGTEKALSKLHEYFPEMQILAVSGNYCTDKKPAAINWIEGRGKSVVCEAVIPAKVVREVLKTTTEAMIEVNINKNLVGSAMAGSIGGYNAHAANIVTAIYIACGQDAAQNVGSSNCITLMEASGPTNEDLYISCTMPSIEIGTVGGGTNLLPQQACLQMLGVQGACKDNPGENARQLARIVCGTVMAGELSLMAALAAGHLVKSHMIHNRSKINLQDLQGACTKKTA
Description: In addition, compounds 781430, 781066, 780780, 780754, 779974, 781456, 782236, 782756, 783250 and 780520 were tested in enzymatic activity-based HMG-CoA reductase assays. […] Blank cells indicate there was no detectable interaction while the “nd” designation indicates the Kd was not determined.

PDE6D [2] = biological target: T2, PDE6D; test: phage-based competition binding screen at 2 μM; parameters: made in house; host or cells: phage; details: 2 μM competitor, duplicate
Description: Forty-four molecules were screened for PDE6D binding activity in a standard phage-based competition binding assay, as described in co-pending U.S. patent applications Ser. No. 10/115,442, filed 2 Apr. 2002, and Ser. No. 10/406,797 filed on 2 Apr. 2003 (or PCT International Application PCT/US03/10247 filed 2 Apr. 2003). All compounds were screened in duplicate (duplicate sets of bars) at a concentration of 2 μM.

CC(C)c1c(C(=O)Nc2ccccc2)c(-c2ccccc2)c(-c2ccc(F)cc2)n1CC(O)CC(=O)O (centres unmarked) [Compound 783770]
Kd (CLB2): 335 nM
Kd (PDE6D [1]): 1100 nM

CC(=O)NCCn1c(-c2ccc(F)cc2)c(-c2ccccc2)c(C(=O)Nc2ccccc2)c1C(C)C [Compound 780754]
Kd (CLB2): 1830 nM
inhibition of the activity of HMG-CoA reductase (HMG-CoA reductase): none of the tested compounds inhibited
Kd (PDE6D [1]): 58 nM

CC(C)c1c(C(=O)Nc2ccccc2)c(-c2ccccc2)c(-c2ccc(F)cc2)n1[C@H](C)C(=O)OC(C)(C)C [Compound 780650]
Kd (CLB2): 2100 nM

CC(C)c1[nH]c(-c2ccccc2)c(-c2ccccc2)c1C(=O)Nc1ccccc1 [Compound 780858]
Kd (CLB2): 1640 nM
fraction of PDE6D-displaying phage bound to immobilized atorvastatin (screen outcome) (PDE6D [2]): candidate lead compounds
Kd (PDE6D [1]): 60 nM

CC(C)c1c(C(=O)Nc2ccccc2)c(-c2ccccc2)c(-c2ccc(F)cc2)n1CCCCCO [Compound 780676]
Kd (CLB2): 1890 nM
fraction of PDE6D-displaying phage bound to immobilized atorvastatin (screen outcome) (PDE6D [2]): candidate lead compounds
Kd (PDE6D [1]): 61 nM

CC(C)c1c(C(=O)Nc2ccccc2)c(-c2ccccc2)c(-c2ccc(F)cc2)n1CCOCCO [Compound 780598]
Kd (PDE6D [1]): 300 nM

CC(C)c1c(C(=O)Nc2ccccc2)c(-c2ccccc2)c(-c2ccc(F)cc2)n1CCN1CCOCC1 [Compound 780052]
Kd (CLB2): 6000 nM
Kd (PDE6D [1]): 387 nM

CC(C)c1c(C(=O)Nc2ccccc2)c(-c2ccccc2)c(-c2ccc(F)cc2)n1Cc1ccccc1 [Compound 780000]
Kd (PDE6D [1]): 598 nM

COCC(C(O)c1ccccc1)n1c(-c2ccc(F)cc2)c(-c2ccccc2)c(C(=O)Nc2ccccc2)c1C(C)C (centres unmarked) [Compound 780910]
Kd (CLB2): 1000 nM
Kd (PDE6D [1]): 280 nM

CCOC(=O)CCn1c(-c2ccc(F)cc2)c(-c2ccccc2)c(C(=O)Nc2ccccc2)c1C(C)C [Compound 780026]
Kd (PDE6D [1]): 6550 nM

CC(C)c1c(C(=O)Nc2ccccc2)c(-c2ccccc2)c(-c2ccc(F)cc2)n1CC(=O)OC(C)(C)C [Compound 780546]
Kd (PDE6D [1]): 880 nM

COc1ccc(-c2[nH]c(C(C)C)c(C(=O)Nc3ccccc3)c2-c2ccccc2)cc1 [Compound 780988]
Kd (CLB2): 6000 nM
Kd (PDE6D [1]): 430 nM

CC(C)c1c(C(=O)Nc2ccccc2)c(-c2ccccc2)c(-c2ccc(F)cc2)n1C [Compound 780104]
Kd (CLB2): 6070 nM
fraction of PDE6D-displaying phage bound to immobilized atorvastatin (screen outcome) (PDE6D [2]): candidate lead compounds
Kd (PDE6D [1]): 114 nM

CCCCCn1c(-c2ccc(F)cc2)c(-c2ccccc2)c(C(=O)Nc2ccccc2)c1C(C)C [Compound 782366]
Kd (PDE6D [1]): 805 nM

CC(C)c1c(C(=O)Nc2ccccc2)c(-c2ccccc2)c(-c2ccc(F)cc2)n1CCS(=O)O [Compound 783666]
Kd (CLB2): 1850 nM

CC(C)c1c(C(=O)Nc2ccccc2)c(-c2ccccc2)c(-c2ccc(F)cc2)n1CCCN1CCCC1=O [Compound 780520]
Kd (CLB2): 1850 nM
inhibition of the activity of HMG-CoA reductase (HMG-CoA reductase): none of the tested compounds inhibited
fraction of PDE6D-displaying phage bound to immobilized atorvastatin (screen outcome) (PDE6D [2]): candidate lead compounds
Kd (PDE6D [1]): 44 nM

CC(C)c1c(C(=O)Nc2ccccc2)c(-c2ccccc2)c(-c2ccc(F)cc2)n1CCCCCCC(=O)O [Compound 780728]
Kd (CLB2): 1650 nM
Kd (PDE6D [1]): 350 nM

CC(C)c1c(C(=O)Nc2ccccc2)c(-c2ccccc2)c(-c2ccc(F)cc2)n1CC[C@@H]1C[C@H](CC(=O)O)OC(C)(C)O1 [Compound 782964]
Kd (CLB2): 9000 nM
Kd (PDE6D [1]): 685 nM

CCC(C)C(CO)n1c(-c2ccc(F)cc2)c(-c2ccccc2)c(C(=O)Nc2ccccc2)c1C(C)C (centres unmarked) [Compound 780936]
Kd (CLB2): 3000 nM
Kd (PDE6D [1]): 141 nM

CC(C)c1c(C(=O)Nc2ccccc2)c(-c2ccccc2)c(-c2ccc(F)cc2)n1CCCCCCO [Compound 780702]
Kd (CLB2): 2000 nM
Kd (PDE6D [1]): 114 nM

CC(C)c1c(C(=O)Nc2ccccc2)c(-c2ccccc2)c(-c2ccc(F)cc2)n1CCO [Compound 780078]
Kd (CLB2): 2340 nM
Kd (PDE6D [1]): 488 nM
